Results as given in publication PMC4585938, “Ursolic acid exerts anti-cancer activity by suppressing vaccinia-related kinase 1-mediated damage repair in lung cancer cells” (Scientific Reports, 2015).

Molecular target: vaccinia-related kinase 1 (VRK1) (Homo sapiens, UniProt Q99986)
Test: biochemical
Format: binding

Sequence of vaccinia-related kinase 1 (VRK1) (Q99986 whole entry): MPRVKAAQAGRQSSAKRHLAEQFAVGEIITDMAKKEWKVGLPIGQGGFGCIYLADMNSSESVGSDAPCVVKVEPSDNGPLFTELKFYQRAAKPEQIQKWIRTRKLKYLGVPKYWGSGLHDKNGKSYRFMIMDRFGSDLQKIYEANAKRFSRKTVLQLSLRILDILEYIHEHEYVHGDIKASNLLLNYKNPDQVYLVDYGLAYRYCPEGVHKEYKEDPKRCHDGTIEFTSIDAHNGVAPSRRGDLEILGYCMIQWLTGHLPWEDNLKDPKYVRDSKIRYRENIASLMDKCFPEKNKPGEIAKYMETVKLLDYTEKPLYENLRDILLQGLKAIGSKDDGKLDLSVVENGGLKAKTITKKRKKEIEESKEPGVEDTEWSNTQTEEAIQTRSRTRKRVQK

SMILES: C[C@H]1[C@H](C)CC[C@]2(C(=O)O)CC[C@]3(C)C(=CC[C@@H]4[C@@]5(C)CC[C@H](O)C(C)(C)[C@@H]5CC[C@]43C)[C@H]12 [UA, (1S,2R,4aS,6aR,6aS,6bR,8aR,10S,12aR,14bS)-10-hydroxy-1,2,6a,6b,9,9,12a-heptamethyl-2,3,4,5,6,6a,7,8,8a,10,11,12,13,14b-tetradecahydro-1H-picene-4a-carboxylic acid]
- Kd: 731 nM
